Each structure is given as a SMILES string.

For one experiment, the target named is IDO1 (Homo sapiens, UniProt P14902). Kind of experiment: IDO1 Cellular Assay in HeLa Cells Stimulated with IFNγ. The conditions noted are these: about 48 hours, read-out: Hela IC50. The format is cell-based. How it is done: Biological Assays IDO1 Cellular Assay in HeLa Cells Stimulated with IFNγ
IDO1, sequence (P14902 whole entry): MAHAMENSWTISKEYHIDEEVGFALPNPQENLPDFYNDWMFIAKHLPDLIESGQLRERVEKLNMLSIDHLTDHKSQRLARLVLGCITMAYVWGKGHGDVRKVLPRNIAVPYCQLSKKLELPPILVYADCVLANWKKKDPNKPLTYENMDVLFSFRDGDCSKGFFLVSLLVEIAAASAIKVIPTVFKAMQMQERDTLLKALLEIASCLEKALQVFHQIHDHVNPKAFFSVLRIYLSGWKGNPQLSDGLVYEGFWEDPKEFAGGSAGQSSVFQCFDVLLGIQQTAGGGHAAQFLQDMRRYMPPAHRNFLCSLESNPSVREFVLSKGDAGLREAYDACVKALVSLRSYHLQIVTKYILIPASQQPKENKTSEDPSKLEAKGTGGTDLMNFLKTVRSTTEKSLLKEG
HeLa cells were cultured in complete HeLa culture medium (90% EMEM, 10% heat-inactivated fetal bovine serum) and expanded to about 1×10^9 cells. The cells were then collected and frozen down at 1×10^7 cells/vial in 1 mL frozen medium (90% complete HeLa culture medium, 10% DMSO).
Compounds to be tested were serially diluted in ten 3-fold steps in DMSO starting from 10 mM DMSO stocks in Echo low volume plate(s).
Frozen HeLa cells were thawed and transferred into HeLa assay medium (99% complete HeLa culture medium, 1% Pen/Strep) with 20 mL medium/vial of cells. The cells were spun down at 250 g in a table top centrifuge for 5 min and suspended in same volume of HeLa assay medium. The cells were then counted and adjusted to a density of 2×10^5 cells/mL in HeLa assay medium. Sterile L-tryptophan were added to the cells with final concentration of 300 uM L-tryptophan. A small aliquot (2 mL/plate) of HeLa cells were set aside and were not treated with IFNγ, to serve as the Max-E control.
HeLa cells with and without IFNγ were dispensed to the respective wells of 384-well assay plates containing the compounds. The plates were incubated for about 48 hours at a 37° C., 5% CO2 incubator. Afterwards, 12 μL of 0.5 M methyl isonipecotate in dimethyl sulfoxide were added into each well and the plates were sealed and incubated at 37° C. without CO2 overnight. The plates were centrifuged for 1 min at 200×g. The resulting fluorescence was measured in a Spectramax plate reader (Molecular Devices) with a 400 nm excitation filter and a 510 nm emission filter.
Potencies were calculated by […] least squares fit to the four parameter logistic IC50 equation.
With `CC(NC(=O)c1ccc(F)cc1)c1ccc2c(n1)CCCN2C(=O)c1ccccn1` (centres unmarked) [Example 280, 2-(1-(4-fluorobenzamido)ethyl)-5-picolinoyl-5,6,7,8-tetrahydro-1,5-naphthyridin-1-ium 2,2,2-trifluoroacetate], the IC50 amounted to 7 nM. On the same count and under the same terms, for `C[C@@H](NC(=O)c1ccc(F)cc1)c1ccc2c(n1)CCCN2C(=O)[C@H]1CCOC1` [Example 131, 4-fluoro-N-((R)-1-(5-((S)-tetrahydrofuran-3-carbonyl)-5,6,7,8-tetrahydro-1,5-naphthyridin-2-yl)ethyl)benzamide] the value was 356 nM. Still for that read-out and setting: the value for `O=C(OC1CC1)N1CCc2nc(C3(C(=O)Nc4ccc(F)cc4)CCC3)ccc21` [Example 269, cyclopropyl 5-(1-((4-fluorophenyl)carbamoyl)cyclobutyl) 2,3-dihydro-1H-pyrrolo[3,2-b]pyridine-1-carboxylate] was 2.2 nM; that for `CC(C)[C@H](O)C(=O)N1CCCc2cc([C@H](C)C(=O)Nc3ccc(F)cc3)ccc21` (single isomer, unassigned) [Example 73] was 381 nM. With `O=C([C@H]1CCCO1)N1CCCc2nc(C3(C(=O)Nc4ccc(F)cc4)CCC3)ccc21` [Example 180, N-(4-fluorophenyl)-1-{5-[(2R)-oxolane-2-carbonyl]-5,6,7,8-tetrahydro-1,5-naphthyiridin-2-yl}cyclobutane-1-carboxamide], the IC50 came out at 1.9 nM. Take `CCn1cc(C(=O)N2CCCc3cc(C4(C(=O)Nc5ccc(F)cc5)CCC4)ccc32)cn1` [Example 112, 1-[1-(1-ethyl-1H-pyrazole-4-carbonyl)-1,2,3,4-tetrahydroquinolin-6-yl]-N-(4-fluorophenyl)cyclobutane-1-carboxamide]: the IC50 came to 2.7 nM.

Consider `O=C(NC1(c2ccc3c(n2)CCCN3C(=O)C2CCCCO2)CC1)c1ccc(F)cc1` (centres unmarked) [Example 177, 4-fluoro-N-{1-[5-(oxane-2-carbonyl)-5,6,7,8-tetrahydro-1,5-naphthyridin-2-yl]cyclopropyl}benzamide], for which the IC50 worked out at 7.5 nM. For `O=C(NC1(c2ccc3c(n2)CCCN3C(=O)C2CCOCC2)CC1)c1ccc(F)cc1` [Example 172, 4-fluoro-N-{1-[5-(oxane-4-carbonyl)-5,6,7,8-tetrahydro-1,5-naphthyridin-2-yl]cyclopropyl}benzamide], the IC50 amounted to 16.1 nM. For the compound `C[C@@H](NC(=O)c1ccc(F)cc1)c1ccc2c(n1)CCCN2C(=O)C1CC1(F)F` (stereo partly drawn) [Example 133, N-{(1R)-1-[5-(2,2-difluorocyclopropane-1-carbonyl)-5,6,7,8-tetrahydro-1,5-naphthyridin-2-yl]ethyl}-4-fluorobenzamide], the IC50 is 63.6 nM. As for `C[C@H](C(=O)Nc1ccc(F)cc1)c1ccc2c(c1)CCCN2C(=O)CC1CC1` [Example 82, (2S)-2-[1-(cyclopropylacetyl)-1,2,3,4-tetrahydroquinolin-6-yl]-N-(4-fluorophenyl)propanamide], the IC50 amounted to 10.9 nM. For `COc1ccnc(N2CCCc3nc(C4(NC(=O)c5ccc(F)cc5)CC4)ccc32)n1` [Example 298, 4-fluoro-N-(1-(5-(4-methoxypyrimidin-2-yl)-5,6,7,8-tetrahydro-1,5-naphthyridin-2-yl)cyclopropyl)benzamide], the half-inhibitory concentration (IC50) stood at 14.5 nM.

In the case of `C[C@H](NC(=O)c1ccc(F)cn1)c1ccc2c(c1)CCCN2C(=O)C1(F)CC1` (single isomer, unassigned) [Example 34], the IC50 was 800 nM. Consider `C[C@H](C(=O)Nc1ccc(F)cc1)c1ccc2c(c1)CCCN2C(=O)C[C@@H](C)O` [Example 68, (2S)-N-(4-fluorophenyl)-2-{1-[(3R)-3-hydroxybulanoyl]-1,2,3,4-tetrahydroquinolin-6-yl}propanamide], for which the IC50 amounted to 296 nM. For the compound `CCn1ccc(C(=O)NCc2ccc3c(c2)CCCN3C(=O)c2cccc(Cl)c2)n1` [Example 24], the IC50 came to 99.8 nM. Still for that read-out and setting: the value for `CC(C)(O)c1cccc(N2CCCc3nc(C4(NC(=O)c5ccc(F)cc5)CC4)ccc32)n1` [Example 297, 4-fluoro-N-(1-(5-(6-(2-hydroxypropan-2-yl)pyridin-2-yl)-5,6,7,8-tetrahydro-1,5-naphthyridin-2-yl)cyclopropyl)benzamide] was 46.4 nM.

`C[C@H](C(=O)Nc1ccc(F)cc1)c1ccc2c(c1)CCCN2C(=O)CC#N` [Example 85, (2S)-2-[1-(cyanoacetyl)-1,2,3,4-tetrahydroquinolin-6-yl]-N-(4-fluorophenyl)propanamide]: the IC50 was determined as 2540 nM. For `COC(=O)N1CCCc2nc(C(C)C(=O)Nc3ccc(F)cc3)ccc21` (centres unmarked) [Example 220, methyl 6-{1-[(4-fluorophenyl)amino]-1-oxopropan-2-yl}-3,4-dihydro-1,5-naphthyridine-1(2H)-carboxylate], the IC50 was determined as 1.9 nM. Consider `O=C(C1CCO1)N1CCCc2nc(C3(C(=O)Nc4ccc(F)cc4)CCC3)ccc21` (centres unmarked) [Example 182, N-(4-fluorophenyl)-1-[5-(oxetane-2-carbonyl)-5,6,7,8-tetrahydro-1,5-naphthyridin-2-yl]cyclobutane-1-carboxamide], for which the IC50 was 5.2 nM. Same read-out and setting: for `CC(C(=O)Nc1ccc(F)cc1)c1ccc2c(c1)CCCN2C(=O)C1CC1` (centres unmarked) [Example 36, 2-[1-(cyclopropanecarbonyl)-1,2,3,4-tetrahydroquinolin-6-yl]-N-(4-fluorophenyl)propanamide] the value was 5.8 nM; for `C[C@H](C(=O)Nc1ccc(F)cn1)c1ccc2c(c1)CCCN2C(=O)c1cccc(Cl)c1` (single isomer, unassigned) [Example 54], 18 nM; for `Cc1cc(C(=O)NCc2ccc3c(c2)CCCN3C(=O)CC(C)C)ccc1Cl` [Example 4, 4-chloro-3-methyl-N-{[1-(3-methylbutanoyl)-1,2,3,4-tetrahydroquinolin-6-yl]methyl}benzamide], 298 nM. Same read-out and setting: for `CC(C)CC(=O)NCc1ccc2c(c1)CCCN2C(=O)c1cccc(Cl)c1` [Example 17, N-{[1-(3-chlorobenzene-1-carbonyl)-1,2,3.4-tetrahydroquinolin-6-yl]methyl}-3-methylbutanamide] the value was 702 nM. In the case of `C[C@H](C(=O)Nc1ccc(F)cc1)c1ccc2c(c1)CCCN2C(=O)C1CCC1` [Example 80, (2S)-2-[1-(cyclobutanecarbonyl)-1,2,3,4-tetrahydroquinolin-6-yl]-N-(4-fluorophenyl)propanamide], the IC50 is 4.5 nM. Still for that read-out and setting: for `CC(NC(=O)c1ccc(F)cc1)c1ccc2c(n1)C(O)CCN2C(=O)C1CC1` (centres unmarked) [Example 196, N-(1-(5-(cyclopropanecarbonyl)-8-hydroxy-5,6,7,8-tetrahydro-1,5-naphthyridin-2-yl)ethyl)-4-fluorobenzamide] the value was 342 nM; for `C[C@H](C(=O)Nc1ccc(F)cc1)c1ccc2c(c1)CCCN2C(=O)[C@@H]1CCCCO1` (single isomer, unassigned) [Example 88], 3.1 nM.

For `O=C(c1cnn(C2CC2)c1)N1CCCc2cc(C3(C(=O)Nc4ccc(F)cc4)CCC3)ccc21` [Example 113, 1-[1-(1-cyclopropyl-1H-pyrazole-4-carbonyl)-1,2,3,4-tetrahydroquinolin-6-yl]-N-(4-fluorophenyl)cyclobutane-1-carboxamide], the IC50 was 65.8 nM.

As to `O=C(Nc1ccc(F)cn1)C1(c2ccc3c(c2)CCCN3S(=O)(=O)N2CCCC2)CCC1` [Example 122, N-(5-fluoropyridin-2-yl)-1-{1-[(pyrrolidin-1-yl)sulfonyl]-1,2,3,4-tetrahydroquinolin-6-yl}cyclobutane-1-carboxamide], the IC50 was found to be 67.1 nM.

Still in this experiment, the particulars now being: read-out: Hela IC50.
For `CC(C)Oc1cccc(N2CCCc3nc(C(C)NC(=O)c4ccc(Cl)cc4)ccc32)n1` (centres unmarked) [Example 353, 4-chloro-N-(1-(5-(6-isopropoxypyridin-2-yl)-5,6,7,8-tetrahydro-1,5-naphthyridin-2-yl)ethyl)benzamide], the IC50 worked out at 77.2 nM. In the case of `CC(NC(=O)c1ccc(F)cc1)c1ccc2c(n1)CCCN2c1cc2n(n1)CCC2` (centres unmarked) [Example 369, N-(1-(5-(5,6-dihydro-4H-pyrrolo[1,2-b]pyrazol-2-yl)-5,6,7,8-tetrahydro-1,5-naphthyridin-2-yl)ethyl)-4-fluorobenzamide], the IC50 was 697 nM. `CC(NC(=O)c1ccc(F)cc1)c1ccc2c(n1)CCCN2c1cc(F)ccn1` (centres unmarked) [Example 380, 4-fluoro-N-(1-(5-(4-fluoropyridin-2-yl)-5,6,7,8-tetrahydro-1,5-naphthyridin-2-yl)ethyl)benzamide]: the IC50 was 74.5 nM. Same read-out and setting: the value for `CC(NC(=O)c1ccc(F)cc1)c1ccc2c(n1)CCCN2c1ccn2ncnc2n1` (centres unmarked) [Example 370, N-(1-(5-([1,2,4]triazolo[1,5-a]pyrimidin-5-yl)-5,6,7,8-tetrahydro-1,5-naphthyridin-2-yl)ethyl)-4-fluorobenzamide] was 1800 nM; that for `COc1ccnc(N2CCCc3nc(C(C)NC(=O)c4ccc(F)cc4)ccc32)c1` (centres unmarked) [Example 377, 4-fluoro-N-(1-(5-(4-methoxypyridin-2-yl)-5,6,7,8-tetrahydro-1,5-naphthyridin-2-yl)ethyl)benzamide] was 315 nM.

The term IC50 denotes the concentration that gives 50% inhibition.
